Source: US6841684B2, “Imidiazoles having reduced side effects” (Allergan, Inc., priority 1997, dated 2005)
Where two headings read alike, the source gives them in different places.

Key:
[1] = system: conscious cynomolgus monkeys; assay: Sedation score during the IOP experiments; assay type: in vivo, cynomolgus monkey; parameters: key to Sedation (0-4): 0=alert, typical vocalization, movement, etc.; 1=calm, less movement; 2=slightly sedated, some vocalization, responsive to stimulation; 3=sedated, no vocalization, some response to stimulation; 4=asleep
Experimental: At the same time, sedation was measured and assessed according to the following score: 0=alert, typical vocalization, movement, etc.; 1=calm, less movement; 2=slightly sedated, some vocalization, responsive to stimulation; 3=sedated, no vocalization, some response to stimulation; 4=asleep.

[2] = system: cynomolgus monkeys with sustained elevated IOP; assay: IOP lowering in conscious monkeys, eyes made hypertensive by argon laser photocoagulation; assay type: in vivo, cynomolgus monkey; settings: Macaca fascicularis, topical, single 50 μl eye drop, up to 6 hours, read-out: Maximum % Decrease From Pretreatment Levels Hypertensive Eye (IOP); for inhibition in vivo at 0.1 %: ocular dose 0.1%; for inhibition in vivo at 0.3 %: ocular dose 0.3%; for inhibition in vivo at 1 %: ocular dose 1%
Description: Measurements of IOP were made in fully conscious female cynomolgus monkeys weighing 3-4 kg with sustained elevated IOP that was produced in the right eye by argon laser photocoagulation of the trabecular meshwork. Animals were usable for experiments 2 months following surgery. During the experiments, monkeys sat in specially designed chairs (Primate Products, San Francisco), and were fed orange juice and fruit as needed. A 30R model Digilab pneumatonometer (Alcon, Tex.) was used to measure IOP.
Twenty five μl of an anesthetic (proparacaine) was topically applied to each monkey before IOP measurements to minimize ocular discomfort due to tonometry. Two baseline measurements were made prior to instillation of the drugs, followed by periodic measurements up to 6 hours post-instillation. The test compounds were administered unilaterally as a single 50 μl eye drop; the contralateral eyes received an equal volume of saline.

[3] = molecular target: T1, rat α2B (RNG gene) receptor (Rattus norvegicus, UniProt P19328); assay: RSAT (Receptor Selection and Amplification Technology) assay, alpha 2B; assay type: cell-based; settings: ratio of maximal effect to that of standard full agonist oxymetazoline
T1 construct: expressed in transfected cells; host or cells: NIH-3T3 cells, calcium phosphate cotransfection
T1 sequence (P19328 1-453): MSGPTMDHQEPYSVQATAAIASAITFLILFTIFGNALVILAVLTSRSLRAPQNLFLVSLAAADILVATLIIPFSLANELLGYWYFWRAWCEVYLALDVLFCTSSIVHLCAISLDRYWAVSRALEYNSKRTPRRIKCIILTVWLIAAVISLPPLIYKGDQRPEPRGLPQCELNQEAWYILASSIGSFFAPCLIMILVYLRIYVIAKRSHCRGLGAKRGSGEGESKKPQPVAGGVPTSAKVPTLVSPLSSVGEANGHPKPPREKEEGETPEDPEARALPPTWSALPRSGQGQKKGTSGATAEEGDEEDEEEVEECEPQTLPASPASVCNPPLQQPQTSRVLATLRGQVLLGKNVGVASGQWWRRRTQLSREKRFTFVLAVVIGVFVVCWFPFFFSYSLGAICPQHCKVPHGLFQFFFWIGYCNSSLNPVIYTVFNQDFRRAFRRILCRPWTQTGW
Description: This preferential activity can be determined in a variety of functional assays such as Cyclic AMP Production, Shimizu et al, J. Neurochem. […] In the study below, the RSAT assay on cells that have been transiently transfected with the human α2A (c10 gene), rat α2B (RNG gene) and human α2C (c4 gene) receptors was used.
The assay measures a receptor-mediated loss of contact inhibition that results in selective proliferation of receptor-containing cells in a mixed population of confluent cells. The increase in cell number is assessed with an appropriate transfected marker gene such as b-galactosidase, the activity of which can be easily measured in a 96-well format. Receptors that activate the G protein, Gq, elicit this response. Alpha2 receptors, which normally couple to Gi, activate the RSAT response when coexpressed with a hybrid Gq protein that has a Gi receptor recognition domain, called Gq/i5^2.
NIH-3T3 cells are plated at a density of 2×10^6 cells in 15 cm dishes and maintained in Dulbecco's modified Eagle's medium supplemented with 10% calf serum. One day later, cells are cotransfected by calcium phosphate precipitation with mammalian expression plasmids encoding p-SV-b-galactosidase (5-10 mg), receptor (1-2 mg) and G protein (1-2 mg). 40 mg salmon sperm DNA may also be included in the transfection mixture. Fresh media is added on the following day and 1-2 days later, cells are harvested and frozen in 50 assay aliquots. Cells are thawed and 100 ml added to […] aliquots of various concentrations of drugs in triplicate in 96-well dishes. Incubations continue 72-96 hr at 37°. After washing with phosphate-buffered saline, b-galactosidase enzyme activity is determined by adding 200 ml of the chromogenic substrate (consisting of 3.5 mM o-nitrophenyl-b-D-galactopyranoside and 0.5% nonidet P-40 in phosphate buffered saline), incubating overnight at 30° and measuring optical density at 420 nm. The absorbence is a measure of enzyme activity, which depends on cell number and reflects a receptor-mediated cell proliferation. The EC50 and maximal effect of each drug at each alpha2 receptor is determined. The efficacy or intrinsic activity is calculated as a ratio of the maximal effect of the drug to the maximal effect of a standard full agonist for each receptor subtype.

[4] = system: conscious cynomolgus monkeys; assay: Cardiovascular side effects (blood pressure, heart rate) after i.v. administration; assay type: in vivo, cynomolgus monkey; settings: up to 6 hours, + with * = increase from base levels
Description: Cardiovascular measurements were made in a different group of monkeys using a BP 100S automated sphygmomanometer (Nippon Colin,. Japan).

| Compound | Sedation (0-4) ([1]; ocular dose 0.3%) | Sedation (0-4) ([1]; ocular dose 1%) | Intrinsic Activity Relative to Oxymetazoline, Alpha 2B [3] | Maximum % Decrease From Pretreatment Levels, Heart Rate ([4]; i.v. 500 μg/kg) | Maximum % Decrease From Pretreatment Levels, Mean Arterial Blood Pressure ([4]; i.v. 500 μg/kg) | inhibition in vivo at 0.3 % [2] [%] | inhibition in vivo at 1 % [2] [%] | also measured |
| --- | --- | --- | --- | --- | --- | --- | --- | --- |
| c1ccc2c(c1)CC(Cc1c[nH]cn1)CO2 (stereo not shown) [Example B-2d, 4(5)-chroman-3-ylmethyl-1H-imidazole] | 0 | 0 | 0.6 | +15.5 ± 3.4* % | +8.9 ± 3.4* % |  |  | Sedation (0-4) ([1]; ocular dose 0.1%): 0; inhibition in vivo at 0.1 % ([2]; 6 h): 22 ± 4.6%; inhibition in vivo at 0.3 % ([2]; 6 h): 17 ± 4.2%; inhibition in vivo at 1 % ([2]; 6 h): 18.1 ± 5.2% |
| c1ccc2c(c1)CCC(Cc1c[nH]cn1)C2 (stereo not shown) [Example B-3b, 4(5)-(1,2,3,4-tetrahydronaphthalen-2-ylmethyl)-1H-imidazole] | 0 |  | 0.7 |  |  |  |  | Sedation (0-4) ([1]; ocular dose 0.1%): 0; inhibition in vivo at 0.1 % ([2]; 6 h): 25.9 ± 3.5%; inhibition in vivo at 0.3 % ([2]; 6 h): 31.2 ± 4.3%; Maximum % Decrease From Pretreatment Levels, Heart Rate ([4]; i.v. 50 μg/kg): 10.0 ± 2.8%; Maximum % Decrease From Pretreatment Levels, Mean Arterial Blood Pressure ([4]; i.v. 50 μg/kg): 2.4 ± 4.3% |
| Cl.c1ccc2c(c1)CC(Cc1c[nH]cn1)CS2 (stereo not shown) [Example B-6, 4(5)-thiochrom-3-ylmethyl-1H-imidazole, hydrogen chloride salt] | 0 | 0 | 0.35 |  |  |  |  | inhibition in vivo at 0.3 % ([2]; 6 h): 13.8 ± 2.4%; inhibition in vivo at 1 % ([2]; 6 h): 22.1 ± 6.3% |
| c1nc(CC2CCc3sccc3C2)c[nH]1 (stereo not shown) [Example B-9a, 4(5)-(4,5,6,7-tetrahydrobenzo[b]thiophen-5-ylmethyl)-1H-imidazole] | 0 | 0 | 0.46 | +23.8 ± 4.4* % | +10.8 ± 3.2* % | 24.8 ± 3.3 | 26.8 ± 5.4 | Sedation (0-4) ([1]; ocular dose 0.03%): 0; Sedation (0-4) ([1]; ocular dose 0.1%): 0; inhibition in vivo at 0.03 % ([2]; ocular dose 0.03%): 17.6 ± 1.7%; inhibition in vivo at 0.1 % [2]: 26.7 ± 6.1% |
| c1nc(Cc2ccsc2)c[nH]1 [Example C-1, 4(5)-thiophen-3-ylmethyl-1H-imidazole] |  | 0 | 0.83 | +11 ± 9* % | +5 ± 8* % |  | 25 ± 4 | Sedation (0-4) ([1]; ocular dose 3%): 0; inhibition in vivo at 3 % ([2]; ocular dose 3%): 29 ± 4%; Maximum % Decrease From Pretreatment Levels, Heart Rate ([4]; i.v. 50 μg/kg): 12 ± 4%; Maximum % Decrease From Pretreatment Levels, Mean Arterial Blood Pressure ([4]; i.v. 50 μg/kg): 12.8 ± 12% |
| c1csc(Cc2c[nH]cn2)c1 [Example C-2, 4(5)-thiophen-2-ylmethyl-1H-imidazole] |  | 0 | 1.3 | 6.5 ± 2.9% | 6.6 ± 1.7% |  | 29.6 ± 5.5 |  |
| Cc1ccc(Cc2c[nH]cn2)s1 [Example C-3, 4(5)-(5-methylthiophen-2-ylmethyl)-1H-imidazole] | 0 | 0 | 0.88 | 10.6 ± 3.4% | 2.3 ± 2.7% | 20.6 ± 4.8 | 25 ± 6.4 |  |
| Clc1ccc(Cc2c[nH]cn2)s1 [Example C-4, 4(5)-(5-chlorothiophen-2-ylmethyl)-1H-imidazole] | 0 | 0 | 0.82 | 10.9 ± 3.6% | 5.3 ± 2.9% | 17.7 ± 4 | 29.3 ± 4.9 |  |
| Cc1ccc(Cc2c[nH]cn2)o1 [Example C-7, 4(5)-(5-methylfuran-2-ylmethyl)-1H-imidazole] |  | 0 | 0.73 | 6.1 ± 3.7% | 3.0 ± 3.9% |  |  | inhibition in vivo at 1 % ([2]; 6 h): 32.3 ± 5.7% |
| c1ccc(Cc2c[nH]cn2)cc1 [Example C-8, 4(5)-benzyl-1H-imidazole] |  | 0 | 0.9 | 16.6 ± 1.9% | 5.5 ± 2.7% |  | 31.2 ± 3.3 |  |
| c1ccc2sc(Cc3c[nH]cn3)cc2c1 [Example C-9, 4(5)-benzo[b]thiophen-2-ylmethyl-1H-imidazole] | 0 | 0 | 0.88 | 5.9 ± 3.3% | 6.0 ± 2.2% | 13.7 ± 4.5 | 25.1 ± 4.9 | Maximum % Decrease From Pretreatment Levels, Heart Rate ([4]; i.v. 3.0 μg/kg): 9.4 ± 3.0%; Maximum % Decrease From Pretreatment Levels, Mean Arterial Blood Pressure ([4]; i.v. 3.0 μg/kg): 5.0 ± 2.3%; Maximum % Decrease From Pretreatment Levels, Heart Rate ([4]; i.v. 17 μg/kg): +9.4 ± 1.8* %; Maximum % Decrease From Pretreatment Levels, Mean Arterial Blood Pressure ([4]; i.v. 17 μg/kg): 1.0 ± 4.1%; Maximum % Decrease From Pretreatment Levels, Heart Rate ([4]; i.v. 50 μg/kg): 16 ± 3.2%; Maximum % Decrease From Pretreatment Levels, Mean Arterial Blood Pressure ([4]; i.v. 50 μg/kg): 0.1 ± 3.8% |
| c1ccc(C2C3CCC(C3)C2/N=C2/NCCO2)cc1 [Example D-1, oxazolidin-2-ylidene-(3-phenylbicyclo[2.2.1]hept-2-yl) amine] |  | 0 | 0.47 |  |  |  | 25.6 ± 3.9 |  |
| c1ccc2c(c1)CC[C@@H](Cc1c[nH]cn1)C2 [Example J-3, (R)-4(5)-(1,2,3,4-tetrahydronaphthalen-2-ylmethyl)-1H-imidazole] | 0 |  | 1 | +10.6 ± 6.0* % | +1.0 ± 2.1* % |  |  | Sedation (0-4) ([1]; ocular dose 0.03%): 0 |
